# Patent US10654828B2 (NOVARTIS AG, priority 2017, dated 2020)
# Read-outs that look alike come from different tables or passages of the source.
# Experiments:
# [1] = system: AKT; assay: AKT activation: Phospho-AKT (Ser473) antibody staining in reporter cells; assay type: cell-based; conditions: U2OS GFP-FoxO3a H212R cells, serum starved overnight, compound 30 minutes, total cellular intensity of Phospho-AKT (Ser473) staining, DMSO control 0%
# Summary of the method: (§1)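 Serum-starved U2OS cells expressing GFP-FoxO3a H212R treated with compounds 30 min, fixed, imaged. FoxO3a: nuclear/cytosolic GFP ratio, %. AKT: total cellular phospho-AKT (Ser473) antibody staining intensity, %. DMSO set as 0% activity.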
# [2] = system: FoxO3a; assay: FoxO3a inhibition: GFP-FoxO3a nuclear to cytoplasmic translocation reporter assay; assay type: cell-based; conditions: U2OS GFP-FoxO3a H212R cells, serum starved overnight, compound 30 minutes, ratio of nuclear to cytosolic GFP intensity, DMSO control 0%, read-out: FoxO AC50
# Summary of the method: as §1
Compound,"AC50 ([1]; Homo sapiens, U2OS, 0.5 h)","AC50 ([2]; Homo sapiens, U2OS, 0.5 h)",AC50 [1],AC50 [2]
"Cc1cc(C(N)=O)nn1-c1ccc2c(ccn2Cc2ccc(-c3ccc(S(C)(=O)=O)nc3)cc2)c1 [Example 30-1, 5-methyl-1-(1-(4-(6-(methylsulfonyl)pyridin-3-yl)benzyl)-1H-indol-5-yl)-1H-pyrazole-3-carboxamide]",633 nM,124 nM,–,–
"Cc1cc(C(N)=O)nn1-c1ccc2c(ccn2Cc2ccc([C@@H]3C[C@@H]4CN(CC5CC5)C[C@@H]4C3)cc2)c1 [Example 40, 1-(1-(4-((3aR,5r,6aS)-2-(cyclopropylmethyl)octahydrocyclopenta[c]pyrrol-5-yl)benzyl)-1H-indol-5-yl)-5-methyl-1H-pyrazole-3-carboxamide]",1220 nM,161 nM,–,–
"Cc1cc(C(N)=O)nn1-c1ccc2c(ccn2Cc2ccc(-c3cnn(C)c3)cc2)c1 [Example 1-19, 5-methyl-1-(1-(4-(1-methyl-1H-pyrazol-4-yl)benzyl)-1H-indol-5-yl)-1H-pyrazole-3-carboxamide]",500 nM,140 nM,–,–
"COc1cc(-c2ccc(Cn3ccc4cc(-n5nc(C(N)=O)cc5C)ccc43)cc2)ccn1 [Example 1-24, 1-(1-(4-(2-methoxypyridin-4-yl)benzyl)-1H-indol-5-yl)-5-methyl-1H-pyrazole-3-carboxamide]",349 nM,123 nM,–,–
"Cc1cc(C(N)=O)nn1-c1ccc2c(ccn2Cc2ccc(-c3ccc4cn[nH]c4c3)cc2)c1 [Example 1-14, 1-(1-(4-(1H-indazol-6-yl)benzyl)-1H-indol-5-yl)-5-methyl-1H-pyrazole-3-carboxamide]",1050 nM,284 nM,–,–
"Cc1cc(C(N)=O)nn1-c1ccc2c(ccn2Cc2ccc(C3=CCNCC3)cc2)c1 [Example 3, 5-methyl-1-(1-(4-(1,2,3,6-tetrahydropyridin-4-yl)benzyl)-1H-indol-5-yl)-1H-pyrazole-3-carboxamide]",1170 nM,476 nM,–,–
"Cc1cc(C(N)=O)nn1-c1ccc2c(ccn2Cc2ccc(-c3ccc4[nH]ncc4c3)cc2)c1 [Example 1-17, 1-(1-(4-(1H-indazol-5-yl)benzyl)-1H-indol-5-yl)-5-methyl-1H-pyrazole-3-carboxamide]",199 nM,88 nM,–,–
"Cc1cc(C(N)=O)nn1-c1ccc2c(ccn2Cc2ccc([C@@H]3C[C@@H]4CN(CCS(C)(=O)=O)C[C@@H]4C3)cc2)c1 [Example 42, 5-Methyl-1-(1-(4-((3aR,5r,6aS)-2-(2-(methylsulfonyl)ethyl)octahydrocyclopenta[c]pyrrol-5-yl)benzyl)-1H-indol-5-yl)-1H-pyrazole-3-carboxamide]",230 nM,69 nM,–,–
"Cc1cc(C(N)=O)nn1-c1ccc2c(ccn2Cc2ccc(-c3cccc(S(N)(=O)=O)c3)cc2)c1 [Example 1-20, 5-methyl-1-(1-((3′-sulfamoyl-[1,1′-biphenyl]-4-yl)methyl)-1H-indol-5-yl)-1H-pyrazole-3-carboxamide]",> 10000 nM,126 nM,–,–
"Cc1cc(C(N)=O)nn1-c1ccc2c(ccn2Cc2ccc(C3CCN(C)CC3(C)C)cc2)c1 (single isomer, unassigned) [Example 16-3, 5-methyl-1-(1-(4-(1,3,3-trimethylpiperidin-4-yl)benzyl)-1H-indol-5-yl)-1H-pyrazole-3-carboxamide]",–,–,3190 nM,1040 nM
"Cc1cc(C(N)=O)nn1-c1ccc2c(ccn2Cc2ccc(-c3ccc(C(=O)N(C)C)cc3)cc2)c1 [Example 1-35, 1-(1-((4′-(dimethylcarbamoyl)-[1,1′-biphenyl]-4-yl)methyl)-1H-indol-5-yl)-5-methyl-1H-pyrazole-3-carboxamide]",217 nM,60 nM,–,–
"Cc1cc(C(N)=O)nn1-c1ccc2c(ccn2Cc2ccc(-c3ccc(C(C)(C)O)cn3)cc2)c1 [Example 30-2, 1-(1-(4-(5-(2-hydroxypropan-2-yl)pyridin-2-yl)benzyl)-1H-indol-5-yl)-5-methyl-1H-pyrazole-3-carboxamide]",320 nM,223 nM,–,–
